According to patent US20090099029A1, “Methods and substrates for conducting assays” (Invitrogen Corporation, priority 2005, published 2009):

Key:
Assay in all cases: Further analysis of a plurality of inhibitors and a plurality of kinases (Table 5 inhibition results)
Format in all cases: biochemical
Parameters in all cases: scale not given here
[1] = biological target: kinases of Table 5 (Homo sapiens, UniProt P11362); conditions: inhibitor 100 uM; for Inhibition level: kinase FGFR1; for Inhibition Results (Level): kinase FGFR1 (Part II, plate D12, Domain 1)
Chain of kinases of Table 5 (Homo sapiens, UniProt P11362) (P11362 22-822): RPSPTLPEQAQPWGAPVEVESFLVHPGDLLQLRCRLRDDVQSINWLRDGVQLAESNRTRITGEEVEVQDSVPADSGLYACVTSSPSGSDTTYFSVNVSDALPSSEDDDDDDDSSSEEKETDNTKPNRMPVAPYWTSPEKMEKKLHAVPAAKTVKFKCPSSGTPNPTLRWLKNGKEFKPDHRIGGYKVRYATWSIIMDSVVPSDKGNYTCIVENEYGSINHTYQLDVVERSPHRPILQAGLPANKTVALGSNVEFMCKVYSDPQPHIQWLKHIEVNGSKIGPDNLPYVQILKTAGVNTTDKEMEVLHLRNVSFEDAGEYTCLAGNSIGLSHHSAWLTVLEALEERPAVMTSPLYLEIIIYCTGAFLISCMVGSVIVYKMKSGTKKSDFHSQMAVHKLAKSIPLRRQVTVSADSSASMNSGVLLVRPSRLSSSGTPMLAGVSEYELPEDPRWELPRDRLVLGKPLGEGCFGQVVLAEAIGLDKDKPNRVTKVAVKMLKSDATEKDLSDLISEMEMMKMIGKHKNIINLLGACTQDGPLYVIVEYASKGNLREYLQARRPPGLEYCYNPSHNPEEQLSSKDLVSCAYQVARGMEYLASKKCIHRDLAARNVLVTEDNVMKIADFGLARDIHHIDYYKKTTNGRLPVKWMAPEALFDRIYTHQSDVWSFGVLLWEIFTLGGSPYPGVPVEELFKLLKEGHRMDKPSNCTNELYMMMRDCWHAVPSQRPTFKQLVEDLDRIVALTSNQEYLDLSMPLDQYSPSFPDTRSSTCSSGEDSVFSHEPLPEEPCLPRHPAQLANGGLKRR
Excerpt: (§1) The wash solution is then discarded.

[2] = biological target: kinases of Table 5 (Homo sapiens, UniProt Q8IVW4); conditions: inhibitor 100 uM; for Inhibition level: kinase CDKL3; for Inhibition Results (Level): kinase CDKL3 (Part II, plate F12, Domain 0)
Excerpt: as §1

[3] = biological target: kinases of Table 5 (Homo sapiens, UniProt Q7KZI7); conditions: kinase MARK2 (Part I, plate C4, Domain 1); inhibitor 100 uM
Chain of kinases of Table 5 (Homo sapiens, UniProt Q7KZI7) (Q7KZI7 whole entry): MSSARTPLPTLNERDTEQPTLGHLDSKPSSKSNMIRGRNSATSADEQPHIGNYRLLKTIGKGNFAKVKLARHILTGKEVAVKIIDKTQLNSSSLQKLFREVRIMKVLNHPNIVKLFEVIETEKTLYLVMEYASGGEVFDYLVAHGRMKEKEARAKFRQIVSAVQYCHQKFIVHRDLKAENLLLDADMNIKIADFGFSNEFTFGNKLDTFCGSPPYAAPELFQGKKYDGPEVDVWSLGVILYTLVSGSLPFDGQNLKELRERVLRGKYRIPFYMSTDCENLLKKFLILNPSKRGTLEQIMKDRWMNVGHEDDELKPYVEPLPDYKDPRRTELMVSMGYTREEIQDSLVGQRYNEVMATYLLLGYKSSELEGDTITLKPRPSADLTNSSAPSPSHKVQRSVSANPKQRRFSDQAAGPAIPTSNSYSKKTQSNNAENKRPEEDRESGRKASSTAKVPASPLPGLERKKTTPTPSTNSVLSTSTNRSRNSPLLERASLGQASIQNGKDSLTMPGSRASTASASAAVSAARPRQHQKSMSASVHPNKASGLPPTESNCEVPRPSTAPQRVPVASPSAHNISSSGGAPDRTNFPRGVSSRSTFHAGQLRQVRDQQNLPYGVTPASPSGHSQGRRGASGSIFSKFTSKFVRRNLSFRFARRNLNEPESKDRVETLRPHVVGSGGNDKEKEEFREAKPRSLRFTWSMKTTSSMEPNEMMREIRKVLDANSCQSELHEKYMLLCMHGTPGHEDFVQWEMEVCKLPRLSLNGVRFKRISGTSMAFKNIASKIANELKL
Excerpt: as §1

[4] = biological target: T1, kinases of Table 5 (Homo sapiens, UniProt P51813); conditions: inhibitor 100 uM; for Inhibition level: kinase BMX; for Inhibition Results (Level): kinase BMX (Part II, plate B12, Domain 1)
T1 sequence (P51813 1-675): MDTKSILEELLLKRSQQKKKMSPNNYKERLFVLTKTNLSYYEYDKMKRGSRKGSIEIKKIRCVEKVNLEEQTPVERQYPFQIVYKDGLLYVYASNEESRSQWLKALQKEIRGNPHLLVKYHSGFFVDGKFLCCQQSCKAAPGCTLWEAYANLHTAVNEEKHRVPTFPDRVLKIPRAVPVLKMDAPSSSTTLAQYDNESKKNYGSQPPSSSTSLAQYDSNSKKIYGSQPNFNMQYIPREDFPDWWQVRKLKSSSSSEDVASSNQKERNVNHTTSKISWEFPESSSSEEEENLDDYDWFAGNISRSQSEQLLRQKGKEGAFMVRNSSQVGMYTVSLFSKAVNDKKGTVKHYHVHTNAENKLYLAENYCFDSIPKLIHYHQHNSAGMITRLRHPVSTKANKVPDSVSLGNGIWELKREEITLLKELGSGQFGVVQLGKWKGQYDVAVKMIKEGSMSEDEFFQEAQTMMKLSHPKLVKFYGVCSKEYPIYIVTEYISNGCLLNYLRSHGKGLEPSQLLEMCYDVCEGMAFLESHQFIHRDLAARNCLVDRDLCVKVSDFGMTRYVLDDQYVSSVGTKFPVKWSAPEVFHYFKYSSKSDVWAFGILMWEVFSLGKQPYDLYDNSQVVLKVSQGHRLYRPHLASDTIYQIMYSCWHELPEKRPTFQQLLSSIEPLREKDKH
Excerpt: as §1

[5] = biological target: kinases of Table 5 (Homo sapiens, UniProt Q9Y6E0); conditions: inhibitor 100 uM; for Inhibition level: kinase STK24; for Inhibition Results (Level): kinase STK24 (Part II, plate F11, Domain 0)
Chain of kinases of Table 5 (Homo sapiens, UniProt Q9Y6E0) (Q9Y6E0 whole entry): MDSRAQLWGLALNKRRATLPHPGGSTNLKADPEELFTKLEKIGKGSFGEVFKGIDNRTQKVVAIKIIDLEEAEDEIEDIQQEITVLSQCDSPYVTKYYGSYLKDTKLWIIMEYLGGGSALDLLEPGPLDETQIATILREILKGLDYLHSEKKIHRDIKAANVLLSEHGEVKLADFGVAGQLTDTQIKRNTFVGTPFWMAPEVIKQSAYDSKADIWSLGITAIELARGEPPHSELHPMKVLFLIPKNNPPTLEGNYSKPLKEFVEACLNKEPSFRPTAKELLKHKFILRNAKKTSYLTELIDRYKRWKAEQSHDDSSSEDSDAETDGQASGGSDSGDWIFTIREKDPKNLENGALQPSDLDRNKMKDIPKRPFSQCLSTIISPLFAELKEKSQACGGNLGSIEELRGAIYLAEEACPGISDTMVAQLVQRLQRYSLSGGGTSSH
Excerpt: as §1

[6] = biological target: kinases of Table 5 (Homo sapiens, UniProt Q14289); conditions: kinase PTK2B (Part I, plate G5, Domain 1)
Chain of kinases of Table 5 (Homo sapiens, UniProt Q14289) (Q14289 whole entry): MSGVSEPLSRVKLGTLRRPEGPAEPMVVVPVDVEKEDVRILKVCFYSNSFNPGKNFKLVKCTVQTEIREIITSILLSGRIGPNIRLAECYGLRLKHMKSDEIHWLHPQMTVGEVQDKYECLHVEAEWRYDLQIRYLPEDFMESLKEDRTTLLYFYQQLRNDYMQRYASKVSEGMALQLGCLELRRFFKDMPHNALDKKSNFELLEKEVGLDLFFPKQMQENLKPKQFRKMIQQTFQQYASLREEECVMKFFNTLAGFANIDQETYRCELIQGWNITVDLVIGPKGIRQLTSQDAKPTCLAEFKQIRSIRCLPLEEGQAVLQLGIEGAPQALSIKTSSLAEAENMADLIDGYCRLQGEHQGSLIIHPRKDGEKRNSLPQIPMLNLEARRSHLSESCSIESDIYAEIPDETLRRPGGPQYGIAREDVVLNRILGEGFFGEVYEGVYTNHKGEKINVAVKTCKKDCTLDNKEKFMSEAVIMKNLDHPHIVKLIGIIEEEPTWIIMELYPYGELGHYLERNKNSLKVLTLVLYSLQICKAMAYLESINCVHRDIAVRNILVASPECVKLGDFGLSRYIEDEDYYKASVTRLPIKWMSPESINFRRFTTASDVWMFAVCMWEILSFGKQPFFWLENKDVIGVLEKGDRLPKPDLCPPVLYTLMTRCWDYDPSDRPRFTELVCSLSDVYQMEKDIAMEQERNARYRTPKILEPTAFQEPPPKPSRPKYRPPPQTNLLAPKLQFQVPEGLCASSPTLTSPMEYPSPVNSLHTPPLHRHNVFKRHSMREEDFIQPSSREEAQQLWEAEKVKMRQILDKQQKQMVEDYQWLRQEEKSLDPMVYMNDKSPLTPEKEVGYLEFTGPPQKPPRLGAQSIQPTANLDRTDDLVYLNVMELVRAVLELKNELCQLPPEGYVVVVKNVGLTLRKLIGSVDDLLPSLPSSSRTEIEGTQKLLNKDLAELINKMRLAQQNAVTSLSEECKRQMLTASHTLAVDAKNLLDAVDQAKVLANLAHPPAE
Excerpt: as §1

[7] = biological target: kinases of Table 5 (Homo sapiens, UniProt P16591); conditions: inhibitor 100 uM; for Inhibition level: kinase FER; for Inhibition Results (Level): kinase FER (Part II, plate H5, Domain 1)
Chain of kinases of Table 5 (Homo sapiens, UniProt P16591) (P16591 whole entry): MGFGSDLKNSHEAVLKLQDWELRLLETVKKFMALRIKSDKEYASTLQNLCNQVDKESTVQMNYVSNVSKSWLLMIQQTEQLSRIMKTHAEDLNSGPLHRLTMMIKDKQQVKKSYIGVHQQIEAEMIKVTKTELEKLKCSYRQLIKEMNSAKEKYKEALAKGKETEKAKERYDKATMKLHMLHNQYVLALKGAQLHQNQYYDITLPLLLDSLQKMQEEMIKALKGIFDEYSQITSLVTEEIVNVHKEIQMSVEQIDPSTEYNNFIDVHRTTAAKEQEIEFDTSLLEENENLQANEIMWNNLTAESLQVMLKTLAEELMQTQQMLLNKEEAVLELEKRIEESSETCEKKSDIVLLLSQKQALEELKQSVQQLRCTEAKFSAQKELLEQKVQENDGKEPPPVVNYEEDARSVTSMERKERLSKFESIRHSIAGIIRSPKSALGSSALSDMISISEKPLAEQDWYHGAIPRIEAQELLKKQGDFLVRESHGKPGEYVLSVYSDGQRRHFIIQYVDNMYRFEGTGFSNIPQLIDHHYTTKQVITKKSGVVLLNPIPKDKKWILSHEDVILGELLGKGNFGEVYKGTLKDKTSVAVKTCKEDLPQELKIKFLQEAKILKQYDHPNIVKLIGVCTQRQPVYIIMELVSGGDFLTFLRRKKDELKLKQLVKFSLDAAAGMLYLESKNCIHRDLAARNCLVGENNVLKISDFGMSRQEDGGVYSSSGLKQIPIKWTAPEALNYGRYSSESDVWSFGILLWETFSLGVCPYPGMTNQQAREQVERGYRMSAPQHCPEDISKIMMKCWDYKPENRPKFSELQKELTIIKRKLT
Excerpt: as §1

[8] = biological target: T2, kinases of Table 5 (Homo sapiens, UniProt P41743); conditions: kinase PRKCI (Part I, plate A2, Domain 0)
T2 sequence (P41743 1-596): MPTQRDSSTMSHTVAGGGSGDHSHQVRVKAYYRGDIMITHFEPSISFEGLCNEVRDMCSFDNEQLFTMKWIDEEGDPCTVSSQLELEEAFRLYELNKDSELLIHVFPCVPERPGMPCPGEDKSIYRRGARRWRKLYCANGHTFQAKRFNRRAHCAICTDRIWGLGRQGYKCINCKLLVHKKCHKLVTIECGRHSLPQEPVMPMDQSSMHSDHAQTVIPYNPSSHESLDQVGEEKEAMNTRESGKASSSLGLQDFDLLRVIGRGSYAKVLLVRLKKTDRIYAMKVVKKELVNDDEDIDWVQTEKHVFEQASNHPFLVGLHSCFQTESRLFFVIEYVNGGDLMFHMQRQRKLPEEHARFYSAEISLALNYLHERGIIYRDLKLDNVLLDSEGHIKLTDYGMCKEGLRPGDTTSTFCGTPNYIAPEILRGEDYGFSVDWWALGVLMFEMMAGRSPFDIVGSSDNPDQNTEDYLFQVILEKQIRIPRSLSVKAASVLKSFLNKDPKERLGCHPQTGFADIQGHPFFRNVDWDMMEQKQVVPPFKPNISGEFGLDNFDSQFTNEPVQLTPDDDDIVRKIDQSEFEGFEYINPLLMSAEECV
Excerpt: as §1

[9] = biological target: T3, kinases of Table 5 (Homo sapiens, UniProt O14965); conditions: kinase STK6 (Part I, plate C6, Domain 1)
T3 sequence (O14965 1-403): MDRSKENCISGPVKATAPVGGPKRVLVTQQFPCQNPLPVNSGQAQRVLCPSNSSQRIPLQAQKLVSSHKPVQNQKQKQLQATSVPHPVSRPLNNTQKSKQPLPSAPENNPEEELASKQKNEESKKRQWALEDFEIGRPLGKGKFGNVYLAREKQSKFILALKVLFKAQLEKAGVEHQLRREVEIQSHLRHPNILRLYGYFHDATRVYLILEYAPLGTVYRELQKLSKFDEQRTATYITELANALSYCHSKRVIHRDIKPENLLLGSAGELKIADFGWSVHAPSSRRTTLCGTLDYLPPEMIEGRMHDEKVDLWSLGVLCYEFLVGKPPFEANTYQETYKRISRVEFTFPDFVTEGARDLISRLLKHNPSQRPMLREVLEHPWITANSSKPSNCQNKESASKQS
Excerpt: as §1

[10] = biological target: kinases of Table 5 (Homo sapiens, UniProt Q8IU85); conditions: inhibitor 100 uM; for Inhibition level: kinase LOC57118; for Inhibition Results (Level): kinase LOC57118 (Part II, plate D2, Domain 1)
Chain of kinases of Table 5 (Homo sapiens, UniProt Q8IU85) (Q8IU85 whole entry): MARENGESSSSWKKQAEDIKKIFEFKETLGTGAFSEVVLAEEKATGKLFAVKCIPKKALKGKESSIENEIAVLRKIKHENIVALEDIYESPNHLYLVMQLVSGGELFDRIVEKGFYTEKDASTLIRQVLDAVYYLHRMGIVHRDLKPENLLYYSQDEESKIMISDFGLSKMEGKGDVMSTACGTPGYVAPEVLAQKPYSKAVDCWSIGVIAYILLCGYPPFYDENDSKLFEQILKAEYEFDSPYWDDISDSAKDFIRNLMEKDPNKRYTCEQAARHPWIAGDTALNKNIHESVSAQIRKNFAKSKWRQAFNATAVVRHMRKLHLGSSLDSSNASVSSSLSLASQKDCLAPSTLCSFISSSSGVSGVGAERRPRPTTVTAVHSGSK
Excerpt: as §1

[11] = biological target: kinases of Table 5 (Homo sapiens, UniProt Q86UE8); conditions: kinase TLK2 (Part I, plate C8, Domain 1)
Chain of kinases of Table 5 (Homo sapiens, UniProt Q86UE8) (Q86UE8 whole entry): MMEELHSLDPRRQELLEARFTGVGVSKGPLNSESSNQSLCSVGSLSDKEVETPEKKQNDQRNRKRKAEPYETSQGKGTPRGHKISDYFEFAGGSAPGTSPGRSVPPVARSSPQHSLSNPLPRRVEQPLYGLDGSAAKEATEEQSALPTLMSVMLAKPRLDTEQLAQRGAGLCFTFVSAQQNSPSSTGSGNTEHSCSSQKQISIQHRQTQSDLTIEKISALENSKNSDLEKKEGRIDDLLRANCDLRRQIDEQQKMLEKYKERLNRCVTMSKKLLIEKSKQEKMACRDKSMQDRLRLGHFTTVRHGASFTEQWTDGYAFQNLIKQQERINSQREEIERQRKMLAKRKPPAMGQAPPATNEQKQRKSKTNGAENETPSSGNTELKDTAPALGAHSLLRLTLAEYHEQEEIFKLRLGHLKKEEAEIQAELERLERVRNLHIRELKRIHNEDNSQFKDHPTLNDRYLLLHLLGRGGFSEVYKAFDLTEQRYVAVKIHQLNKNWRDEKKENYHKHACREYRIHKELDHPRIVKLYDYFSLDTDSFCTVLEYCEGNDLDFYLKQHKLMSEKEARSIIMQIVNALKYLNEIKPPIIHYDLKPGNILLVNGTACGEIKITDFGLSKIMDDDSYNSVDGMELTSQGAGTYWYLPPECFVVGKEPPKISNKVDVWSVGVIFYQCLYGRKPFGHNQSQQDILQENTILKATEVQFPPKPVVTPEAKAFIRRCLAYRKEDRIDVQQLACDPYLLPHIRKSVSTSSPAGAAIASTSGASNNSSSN
Excerpt: as §1

Inhibition level [1] | Inhibition level [2] | Inhibition Results (Level) [3] | Inhibition level [4] | Inhibition level [5] | Inhibition Results (Level) ([6]; inhibitor 100 uM) | Inhibition level [7] | Inhibition Results (Level) ([8]; inhibitor 100 uM) | Inhibition Results (Level) ([9]; inhibitor 100 uM) | Inhibition level [10] | Inhibition Results (Level) ([11]; inhibitor 100 uM) | Compound | Inhibition Results (Level) [2] | Inhibition Results (Level) [4] | Inhibition Results (Level) [7] | Inhibition Results (Level) [10] | further results
1 | 1 | 2 | 1 | 1 | 2 | 1 | 0 | 0 | 0 | 2 | COc1cc2ncnc(Nc3cccc(Cl)c3)c2cc1OC [AG 1478] | – | – | – | – | –
0 | 0 | 2 | 0 | 2 | 2 | 2 | 2 | 2 | 0 | 2 | O=c1c(-c2ccc(O)cc2)coc2cc(O)cc(O)c12 [Genistein] | – | – | – | – | Inhibition Results (Level) ([8]; inhibitor <3.7 mM): 0; Inhibition Results (Level) ([9]; inhibitor <3.7 mM): 0; Inhibition Results (Level) ([11]; inhibitor <3.7 mM): 0
– | – | 2 | – | – | 1 | – | 2 | 0 | – | 2 | O=S(=O)(NCCNC/C=C/c1ccc(Br)cc1)c1cccc2cnccc12 [H-89] | 1 | 1 | 2 | 1 | Inhibition Results (Level) [1]: 1; Inhibition Results (Level) [5]: 2
2 | 2 | 2 | 2 | 2 | 2 | 2 | 1 | 2 | 0 | 2 | CC(C)(C)n1nc(-c2ccc(Cl)cc2)c2c(N)ncnc21 [PP2] | – | – | – | – | –
2 | 2 | 2 | 2 | 2 | 2 | 2 | 0 | 2 | 0 | 1 | Cn1cc(C2=C(c3cn(CCCSC(=N)N)c4ccccc34)C(=O)NC2=O)c2ccccc21 [Ro-31-8220] | – | – | – | – | Inhibition Results (Level) ([6]; inhibitor 90 uM): 0; Inhibition Results (Level) ([8]; inhibitor 90 uM): 2; Inhibition Results (Level) ([9]; inhibitor 90 uM): 0; Inhibition Results (Level) ([11]; inhibitor 90 uM): 2

Second part, the compound before the results:

Compound | Inhibition level [1] | Inhibition level [2] | Inhibition Results (Level) [3] | Inhibition level [4] | Inhibition level [5] | Inhibition Results (Level) ([6]; inhibitor 100 uM) | Inhibition level [7] | Inhibition Results (Level) ([8]; inhibitor 100 uM) | Inhibition Results (Level) ([9]; inhibitor 100 uM) | Inhibition level [10] | Inhibition Results (Level) ([11]; inhibitor 100 uM) | Inhibition Results (Level) [2] | Inhibition Results (Level) [4] | Inhibition Results (Level) [7] | Inhibition Results (Level) [10] | further results
N#C/C(=C/c1ccc(O)c(O)c1)C(=O)NCc1ccccc1 [AG 490] | 0 | 2 | 2 | 0 | 2 | 2 | 2 | 2 | 2 | 1 | 2 | – | – | – | – | –
O=c1c(O)c(-c2ccc(O)c(O)c2)oc2cc(O)cc(O)c12 [Quercetin] | – | – | – | – | – | 1 | – | 0 | – | – | 0 | 0 | 0 | 1 | 0 | –
CC(=O)c1c(O)c(C)c(O)c(Cc2c(O)c3c(c(C(=O)/C=C/c4ccccc4)c2O)OC(C)(C)C=C3)c1O [Rottlerin (Mallotoxin)] | – | – | 2 | – | – | 2 | – | 2 | 2 | – | 2 | 1 | 1 | 2 | 0 | Inhibition Results (Level) [1]: 1; Inhibition Results (Level) [5]: 1
CN[C@@H]1C[C@H]2O[C@@](C)([C@@H]1OC)n1c3ccccc3c3c4c(c5c6ccccc6n2c5c31)C(=O)NC4 [Staurosporine] | – | – | – | – | – | – | – | – | – | – | – | – | – | – | – | Inhibition Results (Level) ([6]; inhibitor 21.5 uM): 0; Inhibition Results (Level) ([9]; inhibitor 21.5 uM): 0; Inhibition Results (Level) ([11]; inhibitor 21.5 uM): 2
